The record followed here is ChEMBL document CHEMBL1201862, “PubChem BioAssay data set” (2004).

Among the test systems are HT-29; HOP-92; RXF 393; Hs-578T; DU-145; SK-MEL-28; MDA-MB-435; SF-268; BT-549; SR; OVCAR-4; COLO 205; PC-3; KM12; SK-MEL-5; IGROV-1; RPMI-8226; OVCAR-5; A498; HL-60.
What all share (experiment): DTP human tumour cell line panel, 48 h

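In this assay, cells in 96-well plates receive the compound at five concentrations for 48 hours. Endpoints are linearly interpolated between the surrounding concentrations. GI50 = concentration required for 50% inhibition of growth.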 Calls of active or inactive are those of the source. No stated cut-off is given here; in the data, active = GI50 up to about 1.1 µM and inactive = higher.

Broadly, the GI50 is the concentration at which growth is held to half of that of the control. On to `CC(C)(C)c1ccc(O)c(C[N+](C)(C)C)c1`, for which the GI50 with HT-29, in the assay on HOP-92, with RXF 393, in the assay with Hs-578T, in the assay with DU-145 and in the assay with SK-MEL-28 was > 100 µM (inactive) each time. Moreover, the GI50 with MDA-MB-435, in the assay on SF-268, with BT-549, in the assay on SR, in the assay with OVCAR-4 and in the assay on COLO 205 was > 100 µM (inactive) each time. The GI50 in the assay on PC-3 was > 100 µM (inactive); in the assay on KM12 it was > 100 µM (inactive); in the assay with SK-MEL-5 it was 49.4 µM (inactive); in the assay with IGROV-1 it was > 100 µM (inactive); in the assay with RPMI-8226, 63.2 µM (inactive); in the assay on OVCAR-5, > 100 µM (inactive). Also, in the assay on A498, the GI50 was 47.5 µM (inactive).
As for `CC(=O)N1N=C(N)CC1=O`, the GI50 in the assay with HL-60, in the assay on HT-29, with HOP-92, in the assay on RXF 393, with Hs-578T and with DU-145 was > 100 µM (inactive) throughout. For the same molecule, the GI50 with SK-MEL-28, with MDA-MB-435, with SF-268, in the assay on BT-549, in the assay on SR and in the assay with OVCAR-4 was > 100 µM (inactive) throughout. The GI50 in the assay on COLO 205, with PC-3, in the assay on KM12, in the assay with SK-MEL-5, in the assay with IGROV-1 and with OVCAR-5 was > 100 µM (inactive) in each case. In addition, in the assay with A498, the GI50 is > 100 µM (inactive).
For `Clc1nc(Cl)c(CBr)c(Cl)n1`, the GI50 is 4.29 µM (inactive) in the assay on HT-29; 2.28 µM (inactive) in the assay with HOP-92; 6.85 µM (inactive) in the assay with RXF 393; 3.8 µM (inactive) with Hs-578T; 16.7 µM (inactive) in the assay with DU-145; 5.74 µM (inactive) in the assay with SK-MEL-28. The GI50 with MDA-MB-435 was 5.05 µM (inactive); in the assay with SF-268, 8.02 µM (inactive); in the assay on BT-549, 2.17 µM (inactive); with SR, 1.74 µM (inactive); in the assay on OVCAR-4 it was 6.34 µM (inactive); in the assay with COLO 205, 7.01 µM (inactive). Moreover, the GI50 is 6.19 µM (inactive) in the assay with PC-3; 2.71 µM (inactive) in the assay on KM12; 4.01 µM (inactive) with SK-MEL-5; 4.41 µM (inactive) in the assay on IGROV-1; 0.867 µM (active) in the assay on RPMI-8226; 3.22 µM (inactive) in the assay on OVCAR-5. Also, in the assay on A498, the GI50 is 18.1 µM (inactive).
`CN(C)NC(=S)Nc1ccccc1Br`: the GI50 in the assay with HL-60, in the assay on HT-29, in the assay with HOP-92, in the assay on RXF 393, in the assay with Hs-578T and in the assay on DU-145 was > 100 µM (inactive) in each case. Further, the GI50 in the assay with SK-MEL-28, in the assay on MDA-MB-435, in the assay on BT-549, in the assay with SR, in the assay on OVCAR-4 and in the assay on COLO 205 was > 100 µM (inactive) each time. Moreover, the GI50 in the assay on PC-3, in the assay on KM12, with SK-MEL-5, in the assay with IGROV-1, with RPMI-8226 and in the assay on OVCAR-5 was > 100 µM (inactive) throughout. The GI50 in the assay with A498 is > 100 µM (inactive).
`CCNCCCNc1c2ccccc2nc2ccccc12`: the GI50 in the assay on HL-60 was 0.493 µM (active); with HT-29, 0.219 µM (active); in the assay on HOP-92 it was 0.469 µM (active); in the assay with RXF 393, 0.568 µM (active); in the assay on Hs-578T it was 0.653 µM (active); with DU-145, 0.525 µM (active). Besides, the GI50 is 0.401 µM (active) in the assay on SK-MEL-28; 0.479 µM (active) in the assay on MDA-MB-435; 0.472 µM (active) with SF-268; 1.92 µM (inactive) in the assay on BT-549; 0.285 µM (active) with SR; 0.478 µM (active) in the assay with OVCAR-4. Also, the GI50 in the assay on COLO 205 was 0.232 µM (active); with PC-3, 0.245 µM (active); in the assay on KM12, 0.396 µM (active); in the assay on SK-MEL-5 it was 0.375 µM (active); in the assay with IGROV-1 it was 0.48 µM (active); in the assay on OVCAR-5, 0.278 µM (active). Besides, the GI50 in the assay with A498 was 0.631 µM (active).
`COc1ccc2c3c1O[C@H]1C(O)CCC4(O)[C@@H](C2)NCC[C@]314` (stereo partly drawn): the GI50 in the assay with HL-60, in the assay on HT-29, in the assay on HOP-92, with Hs-578T, in the assay with DU-145 and in the assay with SK-MEL-28 was > 100 µM (inactive) each time. Moreover, the GI50 in the assay with MDA-MB-435, with SF-268, in the assay on BT-549, with SR, with OVCAR-4 and in the assay on COLO 205 was > 100 µM (inactive) in each case. For the same molecule, the GI50 with PC-3, in the assay on KM12, in the assay on SK-MEL-5, with IGROV-1, in the assay on RPMI-8226 and in the assay on OVCAR-5 was > 100 µM (inactive) each time. The GI50 with A498 is > 100 µM (inactive).
Turning to `Cc1ccc(/C=C2/N/C(=N\N=C/C(O)C(O)C(O)C(O)CO)NC2=O)cc1` (stereo not drawn), the GI50 in the assay with HL-60, in the assay with HT-29, with HOP-92, with RXF 393, with Hs-578T and in the assay with DU-145 was > 100 µM (inactive) each time. For the same molecule, the GI50 in the assay with SK-MEL-28, with MDA-MB-435, in the assay with SF-268, with BT-549, in the assay with SR and with COLO 205 was > 100 µM (inactive) throughout. In addition, the GI50 with PC-3, in the assay on KM12, in the assay on SK-MEL-5, in the assay on IGROV-1, in the assay with RPMI-8226 and in the assay on OVCAR-5 was > 100 µM (inactive) in each case. Moreover, the GI50 in the assay on A498 was > 100 µM (inactive).
Turning to `Cc1cc(S(=O)(=O)N=C2N(Cc3ccccc3)CCN2Cc2ccccc2)c(S)cc1Cl`, the GI50 with HL-60 is > 100 µM (inactive); in the assay with HT-29, > 100 µM (inactive); in the assay on HOP-92 it was > 100 µM (inactive); in the assay on RXF 393, 78.3 µM (inactive); in the assay on Hs-578T, > 100 µM (inactive); with DU-145, > 100 µM (inactive). For the same molecule, the GI50 in the assay with SK-MEL-28 is > 100 µM (inactive); with MDA-MB-435 it was > 100 µM (inactive); in the assay with SF-268, 36 µM (inactive); with BT-549, > 100 µM (inactive); with SR it was 95.9 µM (inactive); in the assay with OVCAR-4, > 100 µM (inactive). Moreover, the GI50 is > 100 µM (inactive) with COLO 205; 27.7 µM (inactive) with PC-3; > 100 µM (inactive) with KM12; > 100 µM (inactive) in the assay with SK-MEL-5; > 100 µM (inactive) in the assay on IGROV-1; > 100 µM (inactive) with RPMI-8226. For the same molecule, the GI50 in the assay on OVCAR-5 and with A498 was > 100 µM (inactive) each time.
For `FC(F)(Sc1ncc[nH]1)c1nc2ccccc2o1`, the GI50 in the assay with HT-29 is > 100 µM (inactive); in the assay with HOP-92, > 100 µM (inactive); in the assay on RXF 393 it was > 100 µM (inactive); in the assay with Hs-578T, 62.7 µM (inactive); with DU-145 it was > 100 µM (inactive); in the assay with SK-MEL-28, > 100 µM (inactive). The GI50 in the assay on MDA-MB-435, in the assay on SF-268, in the assay on BT-549, with SR, in the assay with OVCAR-4 and in the assay with COLO 205 was > 100 µM (inactive) throughout. The GI50 with PC-3, in the assay with KM12, in the assay on SK-MEL-5, with IGROV-1, in the assay on RPMI-8226 and in the assay on OVCAR-5 was > 100 µM (inactive) throughout. The GI50 with A498 was > 100 µM (inactive).
For `BrCc1ccc(CBr)c2c1-c1c(CBr)ccc3ccc(CBr)c-2c13`, the GI50 in the assay on HL-60 is 40.6 µM (inactive); in the assay with HT-29, > 100 µM (inactive); in the assay on HOP-92, > 100 µM (inactive); in the assay with Hs-578T, 53.2 µM (inactive); in the assay on DU-145, > 100 µM (inactive); in the assay with SK-MEL-28, > 100 µM (inactive). Besides, the GI50 with MDA-MB-435 was > 100 µM (inactive); in the assay on SF-268, > 100 µM (inactive); with BT-549 it was > 100 µM (inactive); with SR it was 46.2 µM (inactive); in the assay on OVCAR-4, > 100 µM (inactive); with PC-3, 36.6 µM (inactive). The GI50 in the assay on KM12 was > 100 µM (inactive); with IGROV-1, > 100 µM (inactive); in the assay with RPMI-8226 it was 95.7 µM (inactive); with OVCAR-5 it was > 100 µM (inactive); in the assay with A498, > 100 µM (inactive).
Turning to `CCOC1Oc2ccccc2-c2nc(N)ncc21` (stereo not drawn), the GI50 is 20.8 µM (inactive) in the assay with HL-60; 34.8 µM (inactive) in the assay on HT-29; 69 µM (inactive) in the assay with HOP-92; 37.7 µM (inactive) in the assay with RXF 393; 29.2 µM (inactive) with Hs-578T; 68.4 µM (inactive) with DU-145. In addition, the GI50 in the assay on MDA-MB-435 is 21.7 µM (inactive); with SF-268, 44.1 µM (inactive); with BT-549 it was 31.3 µM (inactive); in the assay with SR, 24.9 µM (inactive); with OVCAR-4 it was > 100 µM (inactive); in the assay with COLO 205, 57.5 µM (inactive). In addition, the GI50 is 41.5 µM (inactive) with PC-3; 39.4 µM (inactive) in the assay with KM12; 42.8 µM (inactive) with SK-MEL-5; 43.6 µM (inactive) with IGROV-1; 40 µM (inactive) in the assay with RPMI-8226; > 100 µM (inactive) with OVCAR-5. Moreover, in the assay on A498, the GI50 is 22.7 µM (inactive).
